Experimental findings from ChEMBL document CHEMBL1212835, “Identification of a potent and noncytotoxic inhibitor of melanin production” (Bioorg Med Chem, 2010) are described below.

“And” between values parts separate entries of the source, which are not always exact repeats. Equal values may be shown once.

The nature of one data set: Cytotoxicity against mouse Melan-a cells assessed as cell viability at 30 uM. In kind it is cell-based. Conditions: Melan-a cells, read-out: Activity.
As for `COc1cc(NC(=O)c2ccco2)cc(OC)c1`, the viability at 30 µM was -1.3%.

In the case of `COC(=O)c1ccccc1NC(=O)c1cccc(OC)c1`, the viability at 30 µM was found to be 11.1%.

Regarding `COc1ccc(C(=O)Nc2ccccc2OC)cc1`, the viability at 30 µM was -2.6%.

Consider `COc1cccc(C(=O)Nc2ccc(C)cc2)c1`, for which the viability at 30 µM amounted to 7.5%.

With `Cc1cc(C)cc(NC(=O)c2ccc(C#N)cc2)c1`, the viability at 30 µM worked out at 31.6%.

As for `CCc1ccc(C(=O)Nc2ccccc2C(=O)OC)cc1`, the viability at 30 µM came out at 18.9%.

With `COC(=O)c1cccc(NC(=O)c2ccc(OC)cc2)c1`, the viability at 30 µM amounted to 18.8%.

In the case of `CCc1ccc(C(=O)Nc2cc(OC)ccc2OC)cc1`, the viability at 30 µM is -19.8%.

For `CCc1ccc(C(=O)Nc2ccc(C)cc2)cc1`, the viability at 30 µM stood at 1.8%.

Turning to `CCCCOc1ccc(NC(=O)c2ccc(C)cc2)cc1`, the viability at 30 µM is -2.4%.

On to `CCCCOc1ccc(NC(=O)c2ccccc2C)cc1`, for which the viability at 30 µM was found to be 9.9%.

In the case of `COc1ccc(OC)c(NC(=O)c2ccc(C)cc2)c1`, the viability at 30 µM is -3.2%.

`COC(=O)c1ccccc1NC(=O)c1ccc(C#N)cc1`: the viability at 30 µM was 8%.

In the case of `Cc1cccc(NC(=O)c2ccc(C#N)cc2)c1`, the viability at 30 µM came out at 11.1%.

Regarding `CCc1ccc(C(=O)Nc2cccc(OC)c2)cc1`, the viability at 30 µM was 6.3%.

As to `COc1cccc(C(=O)Nc2ccc(OC)cc2OC)c1`, the viability at 30 µM was -3.9%.

Regarding `COc1ccc(C(=O)Nc2cc(OC)cc(OC)c2)cc1`, the viability at 30 µM was determined as 13.6%.

As for `COc1cccc(NC(=O)c2ccco2)c1`, the viability at 30 µM was 0.4%.

Take `COC(=O)c1ccc(NC(=O)c2ccco2)cc1`: the viability at 30 µM is -8.4%.

Consider `COC(=O)c1ccccc1NC(=O)c1ccccc1C`, for which the viability at 30 µM amounted to 9.7%.

Consider `COc1ccccc1NC(=O)c1ccco1`, for which the viability at 30 µM was -5.4%.

`COc1ccc(OC)c(NC(=O)c2ccco2)c1`: the viability at 30 µM was -17%.

`CC(=O)c1ccc(NC(=O)c2ccco2)cc1`: the viability at 30 µM was -2.6%.

Consider `COc1ccc(OC)c(NC(=O)c2ccc(C#N)cc2)c1`, for which the viability at 30 µM is -1.7%.

As for `COc1ccc(OC)c(NC(=O)c2cccc(C)c2)c1`, the viability at 30 µM was found to be 0.3%.

In the case of `COc1cccc(NC(=O)c2ccc(C#N)cc2)c1`, the viability at 30 µM was -9.4%.

For `Cc1ccc(NC(=O)c2ccc(C#N)cc2)cc1`, the viability at 30 µM turned out to be 10.9%.

As for `Cc1ccc(NC(=O)c2ccco2)cc1`, the viability at 30 µM came out at 7.9%.

As for `CCc1ccc(C(=O)Nc2ccccc2OC)cc1`, the viability at 30 µM came to 13.5%.

For `CCc1ccc(C(=O)Nc2cc(C(F)(F)F)cc(C(F)(F)F)c2)cc1`, the viability at 30 µM was determined as 16.5%.

In the case of `Cc1cc(C)cc(NC(=O)c2ccco2)c1`, the viability at 30 µM turned out to be 14.2%.

As to `COc1ccc(C(=O)Nc2cc(C(F)(F)F)cc(C(F)(F)F)c2)cc1`, the viability at 30 µM was 21%.

Regarding `CCc1ccc(C(=O)Nc2ccc(OC)cc2)cc1`, the viability at 30 µM was -9.9%.

Turning to `COc1cccc(NC(=O)c2ccc(C)cc2)c1`, the viability at 30 µM came out at 2.7%.

As to `COC(=O)c1cccc(NC(=O)c2cccc(C)c2)c1`, the viability at 30 µM was 10.5%.

As to `Cc1cccc(NC(=O)c2ccco2)c1`, the viability at 30 µM was -1.3%.

With `COC(=O)c1ccc(NC(=O)c2ccccc2C)cc1`, the viability at 30 µM was 0.8%.

`COC(=O)c1ccc(NC(=O)c2cccc(C)c2)cc1`: the viability at 30 µM is 12.9%.

`O=C(Nc1cc(C(F)(F)F)cc(C(F)(F)F)c1)c1ccco1`: the viability at 30 µM came to 31.9%.

For `COC(=O)c1cccc(NC(=O)c2ccco2)c1`, the viability at 30 µM is 0.4%.

For `CC(=O)c1ccc(NC(=O)c2ccc(C#N)cc2)cc1`, the viability at 30 µM was 6.9%.

Consider `COc1cccc(C(=O)Nc2ccccc2OC)c1`, for which the viability at 30 µM worked out at 10.1%.

On to `COc1ccc(NC(=O)c2cccc(C)c2)cc1`, for which the viability at 30 µM was -0.4%.

Take `COc1ccc(C(=O)Nc2cc(C)cc(C)c2)cc1`: the viability at 30 µM was determined as 31.9%.

`COc1ccc(NC(=O)c2ccc(C#N)cc2)cc1`: the viability at 30 µM came to 8.8%.

Turning to `COC(=O)c1cccc(NC(=O)c2ccccc2C)c1`, the viability at 30 µM amounted to 4.6%.

Regarding `COc1cccc(NC(=O)c2cccc(OC)c2)c1`, the viability at 30 µM was -8.4%.

Consider `COc1ccc(NC(=O)c2ccc(OC)cc2)cc1`, for which the viability at 30 µM was -10.6%.

In the case of `COC(=O)c1cccc(NC(=O)c2ccc(C)cc2)c1`, the viability at 30 µM turned out to be 16.4%.

For `COC(=O)c1cccc(NC(=O)c2ccc(C#N)cc2)c1`, the viability at 30 µM amounted to 0.8%.

Regarding `COc1ccc(NC(=O)c2cccc(C)c2)c(OC)c1`, the viability at 30 µM stood at 3.2%.

Regarding `COc1cccc(NC(=O)c2cccc(C)c2)c1`, the viability at 30 µM was -0.3%.

In the case of `COc1ccc(C(=O)Nc2cccc(OC)c2)cc1`, the viability at 30 µM was found to be 0.6%.

For the compound `COC(=O)c1ccc(NC(=O)c2ccc(C)cc2)cc1`, the viability at 30 µM came to 11.2%.

With `CCCCOc1ccc(NC(=O)c2cccc(C)c2)cc1`, the viability at 30 µM turned out to be 4.8%.

In the case of `Cc1cccc(NC(=O)c2cccc(C)c2)c1`, the viability at 30 µM was -0.1%.

On to `COC(=O)c1ccc(NC(=O)c2ccc(OC)cc2)cc1`, for which the viability at 30 µM was -5.6%.

Regarding `COc1ccc(NC(=O)c2cccc(OC)c2)cc1`, the viability at 30 µM is 0.5%.

With `COc1ccc(NC(=O)c2ccco2)cc1`, the viability at 30 µM turned out to be 13.6%.

In the case of `CCc1ccc(C(=O)Nc2cccc(C(=O)OC)c2)cc1`, the viability at 30 µM is 37%.

For `Cc1ccc(NC(=O)c2cccc(C)c2)cc1`, the viability at 30 µM was -2.4%.

Regarding `COc1ccc(NC(=O)c2ccc(C)cc2)cc1`, the viability at 30 µM is 4.9%.

As for `COc1ccc(NC(=O)c2ccccc2C)cc1`, the viability at 30 µM worked out at 12.8%.

`COc1cccc(C(=O)Nc2cc(C(F)(F)F)cc(C(F)(F)F)c2)c1`: the viability at 30 µM came out at 9%.

In the case of `Cc1ccc(C(=O)Nc2cc(C)cc(C)c2)cc1`, the viability at 30 µM came to 30.9%.

`CCCCOc1ccc(NC(=O)c2cccc(OC)c2)cc1`: the viability at 30 µM came out at 19.1%.

Turning to `COc1ccc(OC)c(NC(=O)c2ccccc2C)c1`, the viability at 30 µM was 8.6%.

In the case of `COC(=O)c1ccccc1NC(=O)c1cccc(C)c1`, the viability at 30 µM stood at 29.6%.

Regarding `COC(=O)c1ccc(NC(=O)c2cccc(OC)c2)cc1`, the viability at 30 µM is 13.7%.

With `COc1ccc(NC(=O)c2ccccc2C)c(OC)c1`, the viability at 30 µM was -3.5%.

For the compound `COc1ccc(NC(=O)c2ccc(C#N)cc2)c(OC)c1`, the viability at 30 µM amounted to 7.2%.

`COC(=O)c1ccccc1NC(=O)c1ccco1`: the viability at 30 µM was -2.3%.

For the compound `COc1ccc(NC(=O)c2c(OC)cccc2OC)cc1`, the viability at 30 µM is 10.2%.

Consider `COc1cc(NC(=O)c2cccc(C)c2)cc(OC)c1`, for which the viability at 30 µM is -12.6%.

On to `CCc1ccc(C(=O)Nc2cc(OC)cc(OC)c2)cc1`, for which the viability at 30 µM was determined as 10.1%.

Take `N#Cc1ccc(C(=O)Nc2cc(C(F)(F)F)cc(C(F)(F)F)c2)cc1`: the viability at 30 µM stood at 33.3%.

Regarding `COc1ccccc1NC(=O)c1ccc(C#N)cc1`, the viability at 30 µM is -3.1%.

In the case of `Cc1ccc(C(=O)Nc2cc(C(F)(F)F)cc(C(F)(F)F)c2)cc1`, the viability at 30 µM is 0.3%.

With `CCCCOc1ccc(NC(=O)c2ccc(C#N)cc2)cc1`, the viability at 30 µM is -4.4%.

The data set is the same for the next values; noted with them: melan-a, 30 µM.
On to `CCc1ccc(C(=O)Nc2cc(C)cc(C)c2)cc1`, for which the Activity was 41.5% and > 90%.
